From patent publication US20240300937A1, “Substituted 6-(Pyrimidin-4-yl)Quinoline Compounds as Cyclin Dependent Kinase Inhibitors” (BeiGene, Ltd., priority 2022, published 2024)

Legend:
CDK4/Cyclin D1 = CDK4/Cyclin D1 (Homo sapiens (Human), UniProt P11802); experiment: CDK4/Cyclin D1 kinase TR-FRET inhibition assay; format: biochemical; settings: 1 mM ATP, Rb (Ser780)-biotin substrate, read-out: CDK4D1 IC50
Procedure: (§1) Compounds disclosed herein were tested for inhibition of CDK4/Cyclin D1 or CDK6/Cyclin D3 kinase in an assay based on the time-resolved fluorescence-resonance energy transfer (TR-FRET) methodology. The assay was carried out in 384-well low volume black plates in a reaction mixture containing CDK4/Cyclin D1 or CDK6/Cyclin D3, 1 mM ATP, 0.15 μM Rb (Ser780)-biotin substrate and 0-10 μM compound in buffer containing 50 mM HEPES pH7.0, 0.02% NaN3, 0.01% BSA, 0.1 mM Orthovanadate, 50 mM MgCl2, 1 mM DTT and 0.005% Tween-20. The kinase was incubated with compound for 60 minutes at room temperature and the reaction was initiated by the addition of ATP and Rb (Ser780)-biotin substrate. After reaction at room temperature for 120 minutes, an equal volume of stop/detection solution was added according to the manufacture's instruction (Cisbio Bioassays). The stop/detection solution contained Streptavidin-XL665 and Anti-pRb (Ser780) mAb-Eu Cryptate in Detection buffer (Cisbio Bioassays). Plates were incubated at room temperature for 60 minutes, and the TR-FRET signals (ex337 nm, em665 nm/620 nm) were recorded on a PHERAstar FSX plate reader (BMG Labtech). The inhibition percentage of CDK4/Cyclin D1 or CDK6/Cyclin D3 kinase activity in presence of increasing concentrations of compounds was calculated based on the ratio of fluorescence at 665 nm to that at 620 nm. The IC50 for each compound was derived from fitting the data to the four-parameter logistic equation by Dotmatics.

CDK6/Cyclin D3 = CDK6/Cyclin D3 (Homo sapiens (Human), UniProt Q00534); experiment: CDK6/Cyclin D3 kinase TR-FRET inhibition assay; format: biochemical; settings: 1 mM ATP, Rb (Ser780)-biotin substrate, read-out: CDK6D3 IC50
Procedure: as §1

Chain of CDK6/Cyclin D3 (Q00534 whole entry): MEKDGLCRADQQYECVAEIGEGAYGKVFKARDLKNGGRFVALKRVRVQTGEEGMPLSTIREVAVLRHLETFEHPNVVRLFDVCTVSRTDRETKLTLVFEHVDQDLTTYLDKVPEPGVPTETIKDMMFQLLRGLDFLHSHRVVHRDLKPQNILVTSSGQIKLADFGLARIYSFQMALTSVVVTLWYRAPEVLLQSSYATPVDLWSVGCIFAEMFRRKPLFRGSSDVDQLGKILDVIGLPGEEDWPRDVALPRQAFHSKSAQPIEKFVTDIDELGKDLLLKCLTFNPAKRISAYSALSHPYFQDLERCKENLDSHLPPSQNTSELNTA
Chain of CDK6/Cyclin D3 (P30281 whole entry partner): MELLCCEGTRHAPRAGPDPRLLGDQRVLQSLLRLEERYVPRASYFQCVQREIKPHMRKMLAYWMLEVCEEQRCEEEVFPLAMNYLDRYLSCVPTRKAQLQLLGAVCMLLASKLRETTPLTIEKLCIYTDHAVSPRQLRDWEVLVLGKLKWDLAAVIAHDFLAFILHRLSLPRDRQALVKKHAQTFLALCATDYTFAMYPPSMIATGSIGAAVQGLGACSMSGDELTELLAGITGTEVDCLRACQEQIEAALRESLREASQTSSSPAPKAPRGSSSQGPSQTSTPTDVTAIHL
Chain of CDK4/Cyclin D1 (P11802 whole entry): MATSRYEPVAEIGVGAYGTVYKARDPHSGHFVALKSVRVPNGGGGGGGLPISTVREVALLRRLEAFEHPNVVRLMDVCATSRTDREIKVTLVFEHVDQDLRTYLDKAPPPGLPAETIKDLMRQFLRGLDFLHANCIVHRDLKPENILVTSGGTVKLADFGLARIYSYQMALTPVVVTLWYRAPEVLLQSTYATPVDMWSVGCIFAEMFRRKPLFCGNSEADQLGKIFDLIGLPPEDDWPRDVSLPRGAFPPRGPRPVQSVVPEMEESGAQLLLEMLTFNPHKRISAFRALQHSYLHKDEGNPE
Chain of CDK4/Cyclin D1 (P24385 whole entry partner): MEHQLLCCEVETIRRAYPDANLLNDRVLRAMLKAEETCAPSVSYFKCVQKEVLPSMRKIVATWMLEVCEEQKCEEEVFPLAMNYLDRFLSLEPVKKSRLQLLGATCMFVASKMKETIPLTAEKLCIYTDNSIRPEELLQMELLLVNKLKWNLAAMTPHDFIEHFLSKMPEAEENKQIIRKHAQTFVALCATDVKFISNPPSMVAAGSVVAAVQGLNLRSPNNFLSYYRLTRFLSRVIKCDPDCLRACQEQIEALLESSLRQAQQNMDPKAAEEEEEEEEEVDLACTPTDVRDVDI

## CNC(=O)c1cnc2ccc(-c3nc(N[C@@H]4CCOC[C@H]4O)ncc3F)cc2c1C(C)C [Example 1, 6-(5-fluoro-2-(((3S,4R)-3-hydroxytetrahydro-2H-pyran-4-yl)amino)pyrimidin-4-yl)-4-isopropyl-N-methyl quinoline-3-carboxamide]
CDK4/Cyclin D1
  IC50: 0.067 µM
CDK6/Cyclin D3
  IC50: 0.67 µM

## CC(C)c1c(C(C)(C)O)cnc2ccc(-c3nc(N[C@@H]4CCOC[C@H]4O)ncc3F)cc12 [Example 2]
CDK4/Cyclin D1
  IC50: 0.0046 µM
CDK6/Cyclin D3
  IC50: 0.069 µM

## CC(C)c1c(CO)cnc2ccc(-c3nc(N[C@@H]4CCOC[C@H]4O)ncc3F)cc12 [Example 3, (3S,4R)-4-((5-fluoro-4-(3-(hydroxymethyl)-4-isopropylquinolin-6-yl)pyrimidin-2-yl)amino)tetrahydro-2H-pyran-3-ol]
CDK4/Cyclin D1
  IC50: 0.0049 µM
CDK6/Cyclin D3
  IC50: 0.0735 µM

## CC(C)c1ccnc2ccc(-c3nc(N[C@@H]4CCOC[C@H]4O)ncc3Cl)cc12 [Example 4, (3S,4R)-4-((5-chloro-4-(4-isopropylquinolin-6-yl)pyrimidin-2-yl)amino)tetrahydro-2H-pyran-3-ol]
CDK4/Cyclin D1
  IC50: 0.038 µM
CDK6/Cyclin D3
  IC50: 0.418 µM

## Cc1cc(C(C)C)c2cc(-c3nc(N[C@@H]4CCOC[C@H]4O)ncc3Cl)ccc2n1 [Example 5, (3S,4R)-4-((5-chloro-4-(4-isopropyl-2-methylquinolin-6-yl)pyrimidin-2-yl)amino)tetrahydro-2H-pyran-3-ol]
CDK4/Cyclin D1
  IC50: 0.108 µM
CDK6/Cyclin D3
  IC50: 0.81 µM

## Cc1cnc2ccc(-c3nc(N[C@@H]4CCOC[C@H]4O)ncc3F)cc2c1C(C)C [Example 6, (3S,4R)-4-((5-fluoro-4-(4-isopropyl-3-methylquinolin-6-yl)pyrimidin-2-yl)amino)tetrahydro-2H-pyran-3-ol]
CDK4/Cyclin D1
  IC50: 0.0093 µM
CDK6/Cyclin D3
  IC50: 0.158 µM

## Cc1nc2ccc(-c3nc(N[C@@H]4CCOC[C@H]4O)ncc3F)cc2c(C(C)C)c1C [Example 7, (3S,4R)-4-((5-fluoro-4-(4-isopropyl-2,3-dimethylquinolin-6-yl)pyrimidin-2-yl)amino)tetrahydro-2H-pyran-3-ol]
CDK4/Cyclin D1
  IC50: 0.044 µM
CDK6/Cyclin D3
  IC50: 0.528 µM

## CC(C)c1ccnc2ccc(-c3nc(N[C@@H]4CCOC[C@H]4O)ncc3F)cc12 [Example 8, (3S,4R)-4-((5-fluoro-4-(4-isopropylquinolin-6-yl)pyrimidin-2-yl)amino)tetrahydro-2H-pyran-3-ol]
CDK4/Cyclin D1
  IC50: 0.014 µM
CDK6/Cyclin D3
  IC50: 0.252 µM

## Cc1c(-c2nc(N[C@@H]3CCOC[C@H]3O)ncc2F)ccc2nccc(C(C)C)c12 [Example 9, (3S,4R)-4-((5-fluoro-4-(4-isopropyl-5-methylquinolin-6-yl)pyrimidin-2-yl)amino)tetrahydro-2H-pyran-3-ol]
CDK4/Cyclin D1
  IC50: 0.021 µM
CDK6/Cyclin D3
  IC50: 0.0924 µM

## Cc1cc(C(C)C)c2cc(-c3nc(N[C@@H]4CCOC[C@H]4O)ncc3F)ccc2n1 [Example 10, (3S,4R)-4-((5-fluoro-4-(4-isopropyl-2-methylquinolin-6-yl)pyrimidin-2-yl)amino)tetrahydro-2H-pyran-3-ol]
CDK4/Cyclin D1
  IC50: 0.077 µM
CDK6/Cyclin D3
  IC50: 0.924 µM

## CC(C)c1c(CN(C)C)cnc2ccc(-c3nc(N[C@@H]4CCOC[C@H]4O)ncc3F)cc12 [Example 11, (3S,4R)-4-((4-(3-((dimethylamino)methyl)-4-isopropylquinolin-6-yl)-5-fluoropyrimidin-2-yl)amino)tetrahydro-2H-pyran-3-ol]
CDK4/Cyclin D1
  IC50: 0.021 µM
CDK6/Cyclin D3
  IC50: 0.567 µM

## CC(C)c1c(CN2CCCC2=O)cnc2ccc(-c3nc(N[C@@H]4CCOC[C@H]4O)ncc3F)cc12 [Example 12, 1-((6-(5-fluoro-2-(((3S,4R)-3-hydroxytetrahydro-2H-pyran-4-yl)amino)pyrimidin-4-yl)-4-isopropylquinolin-3-yl)methyl)pyrrolidin-2-one]
CDK4/Cyclin D1
  IC50: 0.019 µM
CDK6/Cyclin D3
  IC50: 0.323 µM

## CC(C)c1c(CN2CCOCC2=O)cnc2ccc(-c3nc(N[C@@H]4CCOC[C@H]4O)ncc3F)cc12 [Example 13, 4-((6-(5-fluoro-2-(((3S,4R)-3-hydroxytetrahydro-2H-pyran-4-yl)amino)pyrimidin-4-yl)-4-isopropylquinolin-3-yl)methyl)morpholin-3-one]
CDK4/Cyclin D1
  IC50: 0.016 µM
CDK6/Cyclin D3
  IC50: 0.464 µM

## CC(C)c1c(CN2CC3CC(C2)O3)cnc2ccc(-c3nc(N[C@@H]4CCOC[C@H]4O)ncc3F)cc12 [Example 14, (3S,4R)-4-((4-(3-((6-oxa-3-azabicyclo[3.1.1]heptan-3-yl)methyl)-4-isopropylquinolin-6-yl)-5-fluoropyrimidin-2-yl)amino)tetrahydro-2H-pyran-3-ol]
CDK4/Cyclin D1
  IC50: 0.012 µM
CDK6/Cyclin D3
  IC50: 0.228 µM

## Cc1nc2ccc(-c3nc(N[C@@H]4CCOC[C@H]4O)ncc3F)cc2c(C(C)C)c1CO [Example 15, (3S,4R)-4-((5-fluoro-4-(3-(hydroxymethyl)-4-isopropyl-2-methylquinolin-6-yl)pyrimidin-2-yl)amino)tetrahydro-2H-pyran-3-ol]
CDK4/Cyclin D1
  IC50: 0.043 µM
CDK6/Cyclin D3
  IC50: 0.559 µM

## CC(C)c1c(CN2CC(O)C2)cnc2ccc(-c3nc(N[C@@H]4CCOC[C@H]4O)ncc3F)cc12 [Example 16, 1-((6-(5-fluoro-2-(((3S,4R)-3-hydroxytetrahydro-2H-pyran-4-yl)amino)pyrimidin-4-yl)-4-isopropylquinolin-3-yl)methyl)azetidin-3-ol]
CDK4/Cyclin D1
  IC50: 0.015 µM
CDK6/Cyclin D3
  IC50: 0.6 µM

## CC(C)c1c(CN2CCOCC2)cnc2ccc(-c3nc(N[C@@H]4CCOC[C@H]4O)ncc3F)cc12 [Example 17, (3S,4R)-4-((5-fluoro-4-(4-isopropyl-3-(morpholinomethyl)quinolin-6-yl)pyrimidin-2-yl)amino)tetrahydro-2H-pyran-3-ol]
CDK4/Cyclin D1
  IC50: 0.011 µM
CDK6/Cyclin D3
  IC50: 0.187 µM

## CC(C)c1c(CN2CC[C@H](F)C2)cnc2ccc(-c3nc(N[C@@H]4CCOC[C@H]4O)ncc3F)cc12 [Example 18, (3S,4R)-4-((5-fluoro-4-(3-(((S)-3-fluoropyrrolidin-1-yl)methyl)-4-isopropylquinolin-6-yl)pyrimidin-2-yl)amino)tetrahydro-2H-pyran-3-ol]
CDK4/Cyclin D1
  IC50: 0.026 µM
CDK6/Cyclin D3
  IC50: 0.598 µM

## CC(C)c1c(CNC2CCC2)cnc2ccc(-c3nc(N[C@@H]4CCOC[C@H]4O)ncc3F)cc12 [Example 19, (3S,4R)-4-((4-(3-((cyclobutylamino)methyl)-4-isopropylquinolin-6-yl)-5-fluoropyrimidin-2-yl)amino)tetrahydro-2H-pyran-3-ol]
CDK4/Cyclin D1
  IC50: 0.02 µM
CDK6/Cyclin D3
  IC50: 1.22 µM

## CC(C)c1c(CNC2CC(F)(F)C2)cnc2ccc(-c3nc(N[C@@H]4CCOC[C@H]4O)ncc3F)cc12 [Example 20, (3S,4R)-4-((4-(3-(((3,3-difluorocyclobutyl)amino)methyl)-4-isopropylquinolin-6-yl)-5-fluoropyrimidin-2-yl)amino)tetrahydro-2H-pyran-3-ol]
CDK4/Cyclin D1
  IC50: 0.012 µM
CDK6/Cyclin D3
  IC50: 0.6 µM

## CC(C)c1c(CNC2CCOC2)cnc2ccc(-c3nc(N[C@@H]4CCOC[C@H]4O)ncc3F)cc12 (stereo partly drawn) [Example 21, (3S,4R)-4-((5-fluoro-4-(4-isopropyl-3-(((tetrahydrofuran-3-yl)amino)methyl)quinolin-6-yl)pyrimidin-2-yl)amino)tetrahydro-2H-pyran-3-ol]
CDK4/Cyclin D1
  IC50: 0.015 µM
CDK6/Cyclin D3
  IC50: 0.495 µM

## CC(C)NCc1cnc2ccc(-c3nc(N[C@@H]4CCOC[C@H]4O)ncc3F)cc2c1C(C)C [Example 22, (3S,4R)-4-((5-fluoro-4-(4-isopropyl-3-((isopropylamino)methyl)quinolin-6-yl)pyrimidin-2-yl)amino)tetrahydro-2H-pyran-3-ol]
CDK4/Cyclin D1
  IC50: 0.0071 µM
CDK6/Cyclin D3
  IC50: 0.398 µM

## CC(C)c1c(CN2CC[C@@H](F)C2)cnc2ccc(-c3nc(N[C@@H]4CCOC[C@H]4O)ncc3F)cc12 [Example 23, (3S,4R)-4-((5-fluoro-4-(3-(((R)-3-fluoropyrrolidin-1-yl)methyl)-4-isopropylquinolin-6-yl)pyrimidin-2-yl)amino)tetrahydro-2H-pyran-3-ol]
CDK4/Cyclin D1
  IC50: 0.019 µM
CDK6/Cyclin D3
  IC50: 0.361 µM

## CC(C)c1c(CNC[C@H]2CCCO2)cnc2ccc(-c3nc(N[C@@H]4CCOC[C@H]4O)ncc3F)cc12 [Example 24, (3S,4R)-4-((5-fluoro-4-(4-isopropyl-3-(((((R)-tetrahydrofuran-2-yl)methyl)amino)methyl)quinolin-6-yl)pyrimidin-2-yl)amino)tetrahydro-2H-pyran-3-ol]
CDK4/Cyclin D1
  IC50: 0.02 µM
CDK6/Cyclin D3
  IC50: 0.62 µM

## CC(C)c1c(CNC2CC2)cnc2ccc(-c3nc(N[C@@H]4CCOC[C@H]4O)ncc3F)cc12 [Example 25, (3S,4R)-4-((4-(3-((cyclopropylamino)methyl)-4-isopropylquinolin-6-yl)-5-fluoropyrimidin-2-yl)amino)tetrahydro-2H-pyran-3-ol]
CDK4/Cyclin D1
  IC50: 0.0083 µM
CDK6/Cyclin D3
  IC50: 0.224 µM

## CC(C)c1c(CNC2CCCC2)cnc2ccc(-c3nc(N[C@@H]4CCOC[C@H]4O)ncc3F)cc12 [Example 26, (3S,4R)-4-((4-(3-((cyclopentylamino)methyl)-4-isopropylquinolin-6-yl)-5-fluoropyrimidin-2-yl)amino)tetrahydro-2H-pyran-3-ol]
CDK4/Cyclin D1
  IC50: 0.033 µM
CDK6/Cyclin D3
  IC50: 0.99 µM
